Assay results as given in US20240374573A1, “IMIDAZOLE CONTAINING COMPOUNDS, DERIVATIVES THEREFORE, AND USES THEREOF” (AglaeaPharma Inc., priority 2023, published 2024).

These molecules were tested against T1, α2AAR (α2A-adrenergic receptor) (Homo sapiens, UniProt P08913) (assay: α2AAR FLIPR assay (agonist activity)). Conditions: FLIPR, α2AAR cell line hosted in HEK293 cells; read-out: α2A agonist activity (EC50).
T1 construct: expressed in transfected cells; host or cells: HEK293
T1 sequence (P08913 1-465): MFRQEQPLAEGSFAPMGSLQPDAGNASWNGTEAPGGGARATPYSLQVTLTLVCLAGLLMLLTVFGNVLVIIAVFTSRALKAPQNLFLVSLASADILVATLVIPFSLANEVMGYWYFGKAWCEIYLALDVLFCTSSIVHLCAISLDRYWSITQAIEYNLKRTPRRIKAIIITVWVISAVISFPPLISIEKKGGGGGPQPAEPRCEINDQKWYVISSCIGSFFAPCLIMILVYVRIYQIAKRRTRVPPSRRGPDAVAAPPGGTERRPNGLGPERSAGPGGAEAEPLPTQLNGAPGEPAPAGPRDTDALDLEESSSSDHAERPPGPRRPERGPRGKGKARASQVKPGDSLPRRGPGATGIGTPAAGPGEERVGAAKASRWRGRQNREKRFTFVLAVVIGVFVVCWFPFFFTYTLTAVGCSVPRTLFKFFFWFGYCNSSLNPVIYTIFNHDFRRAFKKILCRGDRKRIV
Type: cell-based
Method: This experimental protocol involved cell seeding and a FLIPR assay using the α2AAR (α2A-adrenergic receptor) cell line hosted in HEK293 cells. […] On Day 1, the cell seeding process started with the removal of the culture medium, followed by rinsing the cells with DPBS (21-031-CVC, Corning). […] The cells were detached, resuspended in growth media, and centrifuged at room temperature at 1000 rpm for 5 minutes. After discarding the supernatant, the cell pellet was resuspended in growth media to a concentration of 10× 10^5 cells per mL. This suspension was added to 384-well plates (19-Jul-38, Greiner) at 20 μL per well and incubated overnight at 37° C. in 5% CO2.
A 250 mM Probenecid solution was prepared in this buffer. The Fluo-4 Direct™ Loading Buffer was made by dissolving Fluo-4 Direct™ crystals (F10471, Invitrogen) in the FLIPR Assay Buffer and adding Probenecid. The buffer was then vortexed and allowed to stand for over 5 minutes, shielded from light. For the FLIPR procedure, testing compounds for agonist activite were serially diluted and transferred to a 384-well compound plate (25-Jan-39, Greiner). The cell plate was then treated with 2× Fluo-4 Direct™ loading buffer and incubated for 50 minutes at 37° C. in a 5% CO2 atmosphere, followed by 10 minutes at room temperature. Subsequently, the FLIPR assay buffer was added to the compound plate, which is then centrifuged.
The cell plate was analyzed in the FLIPR Tetra+ System for fluorescence signals. For the agonist test, reference compounds were added to the cell plates, and fluorescence was measured. The “Max-Min” calculation began from Read 1 to the maximum allowed. The data were analyzed using Prism software to calculate activation percentage for agonists and inhibition percentage for antagonists. The results were then fitted using specific models to determine EC50 for agonists.
The experimental protocol utilized various reagents and apparatus, including Penicillin/Streptomycin (100×) (SV30010, Hyclone), Poly-L-lysine hydrobromide (P1399, Sigma), and different types of 384-well plates such as the 384-Well PP 2.0 Microplate (PP-0200, LABCYTE) and 384 well Low Dead Volume Microplate (LP-0200, LABCYTE). The use of specific reference compounds like UK14304 was also integral to the assay.

SMILES | EC50
Cc1cccc(C(c2cccc(NC(=O)CC#N)c2)c2c[nH]cn2)c1C (single isomer, unassigned) [10-A] | > 1000 nM
CNC(=O)NCCOCCOCC(c1c[nH]cn1)c1cccc(C)c1C (single isomer, unassigned) [17-A] | > 1000 nM
Cc1cccc(C(c2cccc(C(=O)NC3CCOCC3)c2)c2c[nH]cn2)c1C (single isomer, unassigned) [121-A] | > 1000 nM
COCCOCCNC(=O)c1cccc(C(c2c[nH]cn2)c2cccc(C)c2C)c1 (centres unmarked) [compound 3] | 10 to 50 nM
Cc1cccc(C(c2cccc(OCCNC(=O)Nc3ccncn3)c2)c2c[nH]cn2)c1C (centres unmarked) [compound 4] | 50 to 250 nM
CONC(=O)c1cccc(C(c2c[nH]cn2)c2cccc(O)c2C)c1 (centres unmarked) [compound 7] | 250 to 1000 nM
CONC(=O)c1cccc(C(c2c[nH]cn2)c2cccc(C)c2C)c1O (centres unmarked) [compound 8] | 10 to 50 nM
Cc1cccc(C(c2c[nH]cn2)c2cccc(C(N)=O)c2O)c1C (centres unmarked) [compound 9] | 10 to 50 nM
Cc1cccc(C(c2ccc(O)cc2)c2c[nH]cn2)c1C (centres unmarked) [compound 13] | > 1000 nM
COCCOCCOCCOCCOCCOc1ccc(C(c2c[nH]cn2)c2cccc(C)c2C)cc1 (centres unmarked) [compound 15] | > 1000 nM
COCCOCCOCCOCC(c1c[nH]cn1)c1cccc(C)c1C (centres unmarked) [compound 16] | 10 to 50 nM
CNC(=O)NCCOCCOCC(c1c[nH]cn1)c1cccc(C)c1C (centres unmarked) [compound 17] | 10 to 50 nM
Cc1cccc(C(COCCOCCNS(C)(=O)=O)c2c[nH]cn2)c1C (centres unmarked) [compound 18] | 10 to 50 nM
Cc1cccc(C(COCCOCCN)c2c[nH]cn2)c1C (centres unmarked) [compound 19] | 50 to 250 nM
COCCOCCOCCOCCOCCOCCCC(c1c[nH]cn1)c1cccc(C)c1C (centres unmarked) [compound 21] | > 1000 nM
Cc1cccc(C(c2cccc(C(=O)N3CCOCC3)c2)c2c[nH]cn2)c1C (centres unmarked) [compound 23] | 250 to 1000 nM
CC(=O)NCCOCCOCC(c1c[nH]cn1)c1cccc(C)c1C (centres unmarked) [compound 25] | 50 to 250 nM
CONC(=O)c1cccc(C(c2c[nH]cn2)c2cccc(Cl)c2Cl)c1 (centres unmarked) [compound 35] | 50 to 250 nM
CONC(=O)c1cccc(C(c2c[nH]cn2)c2cccc(Cl)c2C)c1 (centres unmarked) [compound 36] | 50 to 250 nM

Further lines, results first:

EC50 | SMILES
> 1000 nM | CONC(=O)c1cccc(C(c2c[nH]cn2)c2cccc(C)c2C)c1 (single isomer, unassigned) [1-A]
> 1000 nM | Cc1cccc(C(c2cccc(C(N)=O)c2)c2c[nH]cn2)c1C (single isomer, unassigned) [5-A]
> 1000 nM | Cc1cccc(C(Cc2ccc(C(C)C(=O)O)cc2)c2c[nH]cn2)c1C (single isomer, unassigned) [174-A]
250 to 1000 nM | Cc1cccc(C(Cc2ccc(C(C)C(=O)O)cc2)c2c[nH]cn2)c1C (single isomer, unassigned) [174-C]
10 to 50 nM | Cc1cccc(C(c2cccc(C(=O)NCCO)c2)c2c[nH]cn2)c1C (centres unmarked) [compound 2]
10 to 50 nM | Cc1cccc(C(c2cccc(C(N)=O)c2)c2c[nH]cn2)c1C (centres unmarked) [compound 5]
10 to 50 nM | Cc1cccc(C(c2cccc(NC(=O)CC#N)c2)c2c[nH]cn2)c1C (centres unmarked) [compound 10]
250 to 1000 nM | Cc1cccc(C(c2cccc(C(=O)O)c2)c2c[nH]cn2)c1C (centres unmarked) [compound 11]
> 1000 nM | Cc1cccc(C(c2ccc(C(=O)O)cc2)c2c[nH]cn2)c1C (centres unmarked) [compound 12]
> 1000 nM | CNC(=O)Nc1ccc(C(c2c[nH]cn2)c2cccc(C)c2C)cc1 (centres unmarked) [compound 14]
50 to 250 nM | Cc1cccc(C(c2cccc(C(=O)N(C)C)c2)c2c[nH]cn2)c1C (centres unmarked) [compound 33]
> 1000 nM | Cc1cccc(C(c2c[nH]cn2)c2ccccc2C(N)=O)c1C (centres unmarked) [compound 34]

Same assay, conditions: α2A agonist activity (EC50, nM)

SMILES | EC50
CNC(=O)c1cccc(C(c2c[nH]cn2)c2cccc(C)c2C)c1 (centres unmarked) [compound 6] | 10 to 50 nM
CNCCOCCOCC(c1c[nH]cn1)c1cccc(C)c1C (centres unmarked) [compound 24] | 250 to 1000 nM

Each molecule was assayed against T2, α2AAR (Homo sapiens, UniProt P08913) (assay: α2AAR binding assay ([3H]-RX 821002 radioligand)). Conditions: [3H]-RX 821002 0.5 nM, HEK293 membranes; read-out: α2A affinity (Ki).
T2 construct: host or cells: HEK293 (membranes)
T2 sequence (P08913 1-465): T1 sequence (P08913 1-465)
Method: The α2AR Binding Assay was conducted using a stable HEK293 cell line, specifically constructed by WuXi AppTec for targeting α2AAR. […] Both the assay and wash buffers consist of 50 mM Tris-HCl at a pH of 7.4 (Tris base, Sigma, T1503-1 KG).
The procedure initiated with the preparation of test compounds and a reference compound, yohimbine (Sigma, Y3125), through an 8-point 4-fold serial dilution, transferring 1 μL of each to the assay plate. […] After scaling, the plates were agitated at room temperature for one hour. Subsequently, the Unifilter-96 GF/C filter plates were pre-soaked with 0.3% PEI (Sigma, P3143) for at least half an hour. The reaction mixtures were then filtered and washed four times with cold wash buffer using a Perkin Elmer Cell harvester. Post-filtration, the plates were dried at 50° C. for one hour. […] The top of the plates was then sealed with TopSeal-A sealing film. The trapped 3H was quantified using a Perkin Elmer MicroBeta2 Reader. […] Finally, the data were analyzed with Prism 5.0 software, employing the “log (inhibitor) vs. response-Variable slope” model for data fitting. This comprehensive process ensured precise assessment of the binding affinity of compounds to the α2AAR.

Ki | SMILES
50 to 250 nM | Cc1cccc(C(Cc2ccc(NS(C)(=O)=O)cc2)C2=NCCN2)c1C (centres unmarked) [compound 518]
250 to 1000 nM | COCCOCc1cccc(Cl)c1NC1=NCCN1 [compound 520]
